Measured values published in patent US20240166609A1, “ANTIBACTERIAL COMPOUNDS” (BLACKSMITH MEDICINES, INC., priority 2021, published 2024).
≈ marks a conversion by molar mass, not a printed value.

Assays:
K. pneumoniae LpxC = K. pneumoniae LpxC (Klebsiella pneumoniae subsp. pneumoniae, UniProt A6T4N9); experiment: LpxC Binding Assay (Rapid Fire MS assay); format: biochemical
E. coli LpxC = molecular target: T1, E. coli LpxC (Escherichia coli, UniProt P0A725); experiment: LpxC Binding Assay (Rapid Fire MS assay); format: biochemical
T1 sequence (P0A725 1-305): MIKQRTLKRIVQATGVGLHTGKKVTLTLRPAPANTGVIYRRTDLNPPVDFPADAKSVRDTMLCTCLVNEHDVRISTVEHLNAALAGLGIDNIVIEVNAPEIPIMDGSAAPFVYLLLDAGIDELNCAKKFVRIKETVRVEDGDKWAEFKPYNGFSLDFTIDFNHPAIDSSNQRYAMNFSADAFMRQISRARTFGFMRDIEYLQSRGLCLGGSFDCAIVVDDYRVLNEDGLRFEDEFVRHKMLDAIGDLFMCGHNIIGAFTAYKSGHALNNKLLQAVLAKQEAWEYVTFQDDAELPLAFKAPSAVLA
Protocol: (§1) IC50 values against E. coli and P. aeruginosa LpxC are determined using a Rapid Fire MS assay as previously described J. Med. Chem. 2012, 55, 1662-1670.

P. aeruginosa LpxC = molecular target: T2, P. aeruginosa LpxC (Pseudomonas aeruginosa, UniProt P47205); experiment: LpxC Binding Assay (Rapid Fire MS assay); format: biochemical
T2 sequence (P47205 1-303): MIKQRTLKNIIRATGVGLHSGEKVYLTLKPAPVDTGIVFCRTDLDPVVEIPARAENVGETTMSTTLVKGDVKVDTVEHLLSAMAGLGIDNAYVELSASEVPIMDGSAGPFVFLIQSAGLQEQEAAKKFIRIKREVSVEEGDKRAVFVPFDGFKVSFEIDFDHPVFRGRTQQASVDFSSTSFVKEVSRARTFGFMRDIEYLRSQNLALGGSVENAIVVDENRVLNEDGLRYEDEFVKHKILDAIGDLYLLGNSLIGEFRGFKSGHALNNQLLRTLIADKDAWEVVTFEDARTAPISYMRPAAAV
Protocol: as §1

K. pneumoniae ATCC13883 = experiment: Bacterial susceptibility testing, MIC by broth microdilution (CLSI); format: cell-based; conditions: Klebsiella pneumoniae, 35° C., 18-24 h, read-out: MIC (μg/mL) K. pneumoniae ATCC13883
Protocol: (§2) Minimal inhibitory concentrations (MIC) were determined by the broth microdilution method in accordance with the Clinical and Laboratory Standards Institute (CLSI) guidelines. In brief, organism suspensions were adjusted to a final inoculum between 3×10^5 and 7×10^5 colony-forming units (CFU)/mL. Drug dilutions and inocula were made in sterile, cation adjusted Mueller-Hinton Broth (Beckton Dickinson). In wells, an inoculum volume of 100 μL was mixed to 2 μL of DMSO with 2-fold serial dilutions of drug. All inoculated microdilution trays were incubated in ambient air at 35° C. for 18-24 h. Following incubation, the lowest concentration of the drug that prevented visible growth (OD600 nm<0.05) was recorded as the MIC. Performance of the assay was monitored by the use of laboratory quality-control strains and compounds with defined MIC spectrum, in accordance with CLSI guidelines

P. aeruginosa 209 PAO1 = experiment: as above; format: cell-based; conditions: Pseudomonas aeruginosa, 35° C., 18-24 h, read-out: MIC (μg/mL) P. aeruginosa 209 PAO1
Protocol: as §2

P. aeruginosa ATCC27835 = experiment: as above; format: cell-based; conditions: Pseudomonas aeruginosa, 35° C., 18-24 h, read-out: MIC (μg/mL) P. aeruginosa ATCC27835
Protocol: as §2

E. coli ATCC25922 = experiment: as above; format: cell-based; conditions: Escherichia coli, 35° C., 18-24 h, read-out: MIC (μg/mL) E. coli ATCC25922
Protocol: as §2

K. pneumoniae LpxC, sequence (A6T4N9 whole entry): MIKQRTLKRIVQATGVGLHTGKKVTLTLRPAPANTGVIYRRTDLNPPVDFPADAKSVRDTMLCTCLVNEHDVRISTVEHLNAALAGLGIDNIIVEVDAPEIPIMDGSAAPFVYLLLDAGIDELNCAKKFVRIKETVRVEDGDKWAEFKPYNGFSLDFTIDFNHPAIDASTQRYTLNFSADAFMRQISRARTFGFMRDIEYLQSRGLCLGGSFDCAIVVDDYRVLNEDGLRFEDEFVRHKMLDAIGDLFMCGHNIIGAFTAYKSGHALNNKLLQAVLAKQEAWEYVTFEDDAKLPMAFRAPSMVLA

MIC (E. coli ATCC25922) [µg/mL] | Structure (SMILES) | IC50 (K. pneumoniae LpxC) [nM] | IC50 (E. coli LpxC) [nM] | IC50 (P. aeruginosa LpxC) [nM] | MIC (K. pneumoniae ATCC13883) [µg/mL] | MIC (P. aeruginosa 209 PAO1) [µg/mL] | MIC (P. aeruginosa ATCC27835) [µg/mL]
 | C[C@H](O)c1nccn1[C@@H](C#Cc1ccc(-c2ccc(O[C@H]3COC[C@@H]3N)cc2)cc1)CO (relative stereo) [Compound 15, (S)-4-(4′-(((trans)-4-aminotetrahydrofuran-3-yl)oxy)-[1,1′-biphenyl]-4-yl)-2-(2-((S)-1-hydroxyethyl)-1H-imidazol-1-yl)but-3-yn-1-ol] | 1.6 | 1 | 9.8 | 1 (≈ 2.31 µM) | 0.5 (≈ 1.15 µM) | 2 (≈ 4.61 µM)
 | C[C@H](O)c1nccn1[C@@H](C#Cc1ccc(-c2ccc(OC[C@@H](O)CO)cc2)cc1)CO [Compound 8, (S)-3-((4′-((S)-4-hydroxy-3-(2-((S)-1-hydroxyethyl)-1H-imidazol-1-yl)but-1-yn-1-yl)-[1,1′-biphenyl]-4-yl)oxy)propane-1,2-diol] | 1.9 | 1 | 9.6 | 4 (≈ 9.47 µM) | 2 (≈ 4.73 µM) | 2 (≈ 4.73 µM)
 | C[C@H](O)c1nccn1CC#Cc1ccc(-c2ccc(C3CN(C(=O)CO)C3)cc2)cc1 [Compound 21, (S)-2-hydroxy-1-(3-(4′-(3-(2-(1-hydroxyethyl)-1H-imidazol-1-yl)prop-1-yn-1-yl)-[1,1′-biphenyl]-4-yl)azetidin-1-yl)ethan-1-one] | 0.7 | < 0.5 | 12.6 | 1 (≈ 2.41 µM) | 4 (≈ 9.63 µM) | 4 (≈ 9.63 µM)
 | C[C@H](O)c1nccn1[C@@H](C#Cc1ccc(-c2ccc(OCC(CO)CO)cc2)cc1)CO [Compound 11, 2-(((4′-((S)-4-hydroxy-3-(2-((S)-1-hydroxyethyl)-1H-imidazol-1-yl)but-1-yn-1-yl)-[1,1′-biphenyl]-4-yl)oxy)methyl)propane-1,3-diol] | 1.8 | 1 | 6.6 | 8 (≈ 18.3 µM) | 2 (≈ 4.58 µM) | 4 (≈ 9.16 µM)
 | C[C@H](O)c1nccn1[C@@H](C#Cc1ccc(-c2ccc(OC(CO)CCO)cc2)cc1)CO (mixture of isomers) [Compound 22, 2-((4′-((S)-4-hydroxy-3-(2-((S)-1-hydroxyethyl)-1H-imidazol-1-yl)but-1-yn-1-yl)-[1,1′-biphenyl]-4-yl)oxy)butane-1,4-diol] | 1.5 | 0.8 | 8 | 4 (≈ 9.16 µM) | 1 (≈ 2.29 µM) | 4 (≈ 9.16 µM)
 | C[C@H](O)c1nccn1[C@@H](C#Cc1ccc(-c2ccc(O[C@H]3COC[C@@H]3O)cc2)cc1)CO (relative stereo) [Compound 10, (trans)-4-((4′-((S)-4-hydroxy-3-(2-((S)-1-hydroxyethyl)-1H-imidazol-1-yl)but-1-yn-1-yl)-[1,1′-biphenyl]-4-yl)oxy)tetrahydrofuran-3-ol] | 0.9 | < 0.5 | 5.1 | 2 (≈ 4.6 µM) | 1 (≈ 2.3 µM) | 2 (≈ 4.6 µM)
 | C[C@H](O)c1nccn1[C@@H](C#Cc1ccc(-c2ccc(O[C@@H]3C[C@H]3NCCF)cc2)cc1)CO (racemic) [Compound 12, (S)-4-(4′-((trans)-2-((2-fluoroethyl)amino)cyclopropoxy)-[1,1′-biphenyl]-4-yl)-2-(2-((S)-1-hydroxyethyl)-1H-imidazol-1-yl)but-3-yn-1-ol] | 1.1 | < 0.5 | 6 | 2 (≈ 4.45 µM) | 2 (≈ 4.45 µM) | 4 (≈ 8.9 µM)
 | COC[C@@H](O)COc1ccc(-c2ccc(C#C[C@@H](CO)n3ccnc3[C@H](C)O)cc2)cc1 [Compound 14, (S)-4-(4′-((R)-2-hydroxy-3-methoxypropoxy)-[1,1′-biphenyl]-4-yl)-2-(2-((S)-1-hydroxyethyl)-1H-imidazol-1-yl)but-3-yn-1-ol] | 0.9 | < 0.5 | 6.4 | 2 (≈ 4.58 µM) | 1 (≈ 2.29 µM) | 2 (≈ 4.58 µM)
 | C[C@H](O)c1nccn1CC#Cc1ccc(-c2ccc(C3CC(NCCC#N)C3)cc2)cc1 (stereo partly drawn) [Compound 18, (S)-3-((3-(4′-(3-(2-(1-hydroxyethyl)-1H-imidazol-1-yl)prop-1-yn-1-yl)-[1,1′-biphenyl]-4-yl)cyclobutyl)amino)propanenitrile] | 0.6 | < 0.5 | 8.6 | 0.25 (≈ 0.589 µM) | 2 (≈ 4.71 µM) | 2 (≈ 4.71 µM)
 | C[C@H](O)c1nccn1[C@@H](C#Cc1ccc(-c2ccc(CO[C@@H]3C[C@H]3N)cc2)cc1)CO (racemic) [Compound 9, (S)-4-(4′-(((trans)-2-aminocyclopropoxy)methyl)-[1,1′-biphenyl]-4-yl)-2-(2-((S)-1-hydroxyethyl)-1H-imidazol-1-yl)but-3-yn-1-ol] | 3.9 | 1.8 | 47.7 | 4 (≈ 9.58 µM) | 2 (≈ 4.79 µM) | 4 (≈ 9.58 µM)
16 (≈ 33.9 µM) | C[C@H](O)c1nccn1[C@@H](C#Cc1ccc(-c2ccc(O[C@@H]3CN(CC#N)C[C@H]3O)cc2)cc1)CO [Compound 45, 2-((3R,4R)-3-hydroxy-4-((4′-((S)-4-hydroxy-3-(2-((S)-1-hydroxyethyl)-1H-imidazol-1-yl)but-1-yn-1-yl)-[1,1′-biphenyl]-4-yl)oxy)pyrrolidin-1-yl)acetonitrile] |  |  |  | 8 (≈ 16.9 µM) | 2 (≈ 4.23 µM) | 2 (≈ 4.23 µM)
0.5 (≈ 1.24 µM) | C[C@H](O)c1nccn1CC#Cc1ccc(-c2ccc(O[C@@H]3COC[C@H]3O)cc2)cc1 [Compound 42, (3R,4R)-4-((4′-(3-(2-((S)-1-hydroxyethyl)-1H-imidazol-1-yl)prop-1-yn-1-yl)-[1,1′-biphenyl]-4-yl)oxy)tetrahydrofuran-3-ol] |  |  |  | 0.5 (≈ 1.24 µM) | 2 (≈ 4.94 µM) | 2 (≈ 4.94 µM)
8 (≈ 20.4 µM) | C[C@H](O)c1nccn1[C@@H](C#Cc1ccc(-c2ccc(C(O)CO)cc2)cc1)CO (mixture of isomers) [Compound 5, 1-(4′-((S)-4-hydroxy-3-(2-((S)-1-hydroxyethyl)-1H-imidazol-1-yl)but-1-yn-1-yl)-[1,1′-biphenyl]-4-yl)ethane-1,2-diol] |  |  |  | 16 (≈ 40.8 µM) | 4 (≈ 10.2 µM) | 4 (≈ 10.2 µM)
0.25 (≈ 0.62 µM) | C[C@H](O)c1nccn1[C@@H](C#Cc1ccc(-c2ccc(O[C@@H]3C[C@H]3N)cc2)cc1)CO (racemic) [Compound 4, (S)-4-(4′-((trans)-2-aminocyclopropoxy)-[1,1′-biphenyl]-4-yl)-2-(2-((S)-1-hydroxyethyl)-1H-imidazol-1-yl)but-3-yn-1-ol] |  |  |  | 0.5 (≈ 1.24 µM) | 2 (≈ 4.96 µM) | 2 (≈ 4.96 µM)

Structure (SMILES) | MIC (E. coli ATCC25922) [µg/mL] | IC50 (K. pneumoniae LpxC) [nM] | IC50 (E. coli LpxC) [nM] | IC50 (P. aeruginosa LpxC) [nM] | MIC (K. pneumoniae ATCC13883) [µg/mL] | MIC (P. aeruginosa 209 PAO1) [µg/mL] | MIC (P. aeruginosa ATCC27835) [µg/mL]
C[C@H](O)c1nccn1CC#Cc1ccc(-c2ccc(OCC(N)CO)cc2)cc1 (mixture of isomers) [Compound 7, 2-amino-3-((4′-(3-(2-((S)-1-hydroxyethyl)-1H-imidazol-1-yl)prop-1-yn-1-yl)-[1,1′-biphenyl]-4-yl)oxy)propan-1-ol] | 2 (≈ 5.11 µM) |  | 13.6 | 25.5 | 4 (≈ 10.2 µM) | 2 (≈ 5.11 µM) | 2 (≈ 5.11 µM)
C[C@H](O)c1nccn1[C@@H](C#Cc1ccc(-c2ccc(O[C@H]3COC[C@@H]3O)cc2)cc1)CO (racemic) [Compound 46, (cis)-4-((4′-((S)-4-hydroxy-3-(2-((S)-1-hydroxyethyl)-1H-imidazol-1-yl)but-1-yn-1-yl)-[1,1′-biphenyl]-4-yl)oxy)tetrahydrofuran-3-ol] | 1 (≈ 2.3 µM) |  |  |  | 2 (≈ 4.6 µM) | 1 (≈ 2.3 µM) | 2 (≈ 4.6 µM)
